The experiment addresses T1, JAK3 (Homo sapiens, UniProt P52333).
T1 sequence (P52333 1-1124): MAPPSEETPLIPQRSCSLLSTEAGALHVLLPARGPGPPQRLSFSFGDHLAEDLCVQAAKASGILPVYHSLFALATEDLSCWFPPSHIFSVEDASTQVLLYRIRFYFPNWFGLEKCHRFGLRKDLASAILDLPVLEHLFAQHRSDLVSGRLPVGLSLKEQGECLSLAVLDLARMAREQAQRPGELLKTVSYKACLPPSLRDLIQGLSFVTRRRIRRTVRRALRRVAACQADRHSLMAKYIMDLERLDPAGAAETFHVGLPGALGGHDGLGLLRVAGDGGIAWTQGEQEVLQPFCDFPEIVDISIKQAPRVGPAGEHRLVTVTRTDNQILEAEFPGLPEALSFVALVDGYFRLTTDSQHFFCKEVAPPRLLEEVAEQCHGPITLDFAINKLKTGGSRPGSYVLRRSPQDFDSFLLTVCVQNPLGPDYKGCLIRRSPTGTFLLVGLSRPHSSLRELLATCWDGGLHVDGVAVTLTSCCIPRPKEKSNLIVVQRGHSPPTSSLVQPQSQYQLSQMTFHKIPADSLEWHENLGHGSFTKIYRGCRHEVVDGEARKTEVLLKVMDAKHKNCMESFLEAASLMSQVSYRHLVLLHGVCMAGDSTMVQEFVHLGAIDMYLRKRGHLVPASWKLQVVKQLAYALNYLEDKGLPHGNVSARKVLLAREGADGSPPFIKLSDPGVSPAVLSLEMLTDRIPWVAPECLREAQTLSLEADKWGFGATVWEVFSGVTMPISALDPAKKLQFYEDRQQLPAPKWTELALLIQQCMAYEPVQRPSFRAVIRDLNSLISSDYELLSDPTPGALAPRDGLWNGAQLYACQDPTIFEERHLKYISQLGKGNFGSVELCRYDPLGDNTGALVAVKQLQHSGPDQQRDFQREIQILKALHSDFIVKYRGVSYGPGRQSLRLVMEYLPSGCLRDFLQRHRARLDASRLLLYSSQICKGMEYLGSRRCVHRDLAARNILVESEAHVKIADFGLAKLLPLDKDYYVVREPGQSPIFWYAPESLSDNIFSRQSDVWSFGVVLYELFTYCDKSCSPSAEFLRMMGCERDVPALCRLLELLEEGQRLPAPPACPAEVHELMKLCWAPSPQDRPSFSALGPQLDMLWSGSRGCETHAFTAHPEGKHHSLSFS
The experiment in a line: In vitro kinase inhibition studies (Table 13), JAK3. It is filed as biochemical.

In the case of `Nc1ncnc2c1c(-c1ccc(Oc3ccccc3)cc1)nn2[C@@H]1CCCN(S(=O)(=O)c2c(F)c(F)c(F)c(F)c2F)C1` [Compound 5-1, (R)-1-(1-((perfluorophenyl)sulfonyl)piperidin-3-yl)-3-(4-phenoxyphenyl)-1H-pyrazolo[3,4-d]pyrimidin-4-amine], the IC50 fell in the range of 100 to 1000 nM.

In general, IC50 refers to the concentration at which inhibition is half-maximal. Low values mean greater potency in that assay, high ones weaker potency in that assay.
